Measured values taken from paper PMC12811997 (Chemmedchem, 2025).
Converted amounts (≈) assume the structure as drawn. Where two headings read alike, the source gives them in different places.

How the values were obtained:
[1] = biological target: T1, SARS‐CoV‐2 RdRp complex (nsp12, nsp7, nsp8) (Severe acute respiratory syndrome coronavirus 2, UniProt P0DTD1); set-up: method as in PMID 39140451; settings: at 10 μM concentration of screened compound; ref [10]; cited from earlier work
[2] = Chemical stability in aqueous solution; format: physicochemical
[3] = biological target: T1, SARS‐CoV‐2 RdRp complex (nsp12, nsp7, nsp8); test: biochemical; format: biochemical; settings: AUC with compound / AUC of noninhibited reaction
[4] = tested on: SARS‐CoV‐2; test: microbe, parasite or virus in culture; format: cell-based; settings: Calu‐3 cells infected with SARS‐CoV‐2, concentration required to reduce viral cytopathic effect by 50%, read-out: EC50
[5] = in vitro; settings: human
Description: (§1) Cytotoxicity was evaluated by incubating the same two‐fold serial dilutions of each compound with Calu‐3 cells as above but without the virus. Following 3 days of incubation at 37 °C in 5% CO2, the cell viability was determined by the addition of XTT solution as above. The compound cytotoxic concentrations resulting in a 50% reduction of absorbance (CC50) were calculated from plots of the percentage of absorbance versus log10 of drug concentration as above.

[6] = Kinetic solubility
[7] = tested on: Calu‐3 cells; settings: read-out: CC50 ± SE, concentration required to reduce cell viability by 50%
Description: as §1

O=C(Nc1cccc(C(F)(F)F)c1)Nc1nc2cc(Cl)c(Cl)cc2[nH]1 [Compound 3]
RA (residual activity of RdRp) [1]: 49 ± 6%

O=C(Nc1cc(Cl)cc(Cl)c1)Nc1nc2ccc(C(F)(F)F)cc2[nH]1 [Compound 4]
RA (residual activity of RdRp) [1]: 29 ± 2%

O=C(Nc1cc(Cl)cc(Cl)c1)Nc1ccc(CN2CCOC(=O)C2)c(C(F)(F)F)c1 [Compound 64, 1‐(3,5‐Dichlorophenyl)‐3‐(4‐((2‐Oxomorpholino)Methyl)‐3‐(Trifluoromethyl)Phenyl)Urea]
chemical stability [2]: chemically unstable and underwent rapid hydrolysis in aqueous solution | remaining activity at 10 µM ([3]; read-out: RA ± SD (residual activity of RdRp), at 10 μM concentration of screened compounds): 39 ± 12% | EC50 ([4]; Severe acute respiratory syndrome coronavirus 2): > 38 µM | CC50 at 3 days [5]: 38 ± 8.2 µM | solubility kinetic ([6]; kinetic from dmso stock): 21 ± 2 µM (≈ 9.71 µg/mL) | increase in kinetic solubility compared with compound 39 ([6]; relative to compound 39): 5 fold

Ethyl 1‐(4‐(3‐(3,5‐Dichlorophenyl)Ureido)‐2‐(Trifluoromethyl)Benzyl)Piperidine‐4‐Carboxylate Hydrochloride [Compound 67]
RA ± SD (residual activity of RdRp) ([3]; at 10 μM concentration of screened compounds): 51 ± 11% | EC50 [4]: > 9 µM | CC50 [7]: 9 ± 0.38 µM
